Data set [1] is described as follows: Stability in solution and on storage. The class given is physicochemical. The protocol:
where R^1, R^2, Q, M^1, m, n, and q are those defined above. […] In addition, unlike many other aluminum metal catalysts, Compound of Formula IA has a relatively high solubility in aliphatic hydrocarbon solvents. For example, the compound AlMe2(1-Dd-CB11F11), where Dd is dodecyl, is soluble in hexanes and methylcyclohexane and stable for at least 10 days at 25° C.
A suspension of CPh3(1-Et-CB11F11) (0.412 g, 0.67 mmol) in pentane (40 ml) was treated with a solution of Si(i-Pr)3H (0.215 g, 1.36 mmol, 2 equiv.) in pentane (10 ml) for 20 hours at room temperature. The mixture was treated with more Si(i-Pr)3H (0.56 g, 3.54 mmol) for another 20 hours. (Note, that a large excess of Si(i-Pr)3H (˜7 equiv.) required for the reaction to go to completion. A slightly pink pentane solution was filtered from a small amount of red-brown oily solid (˜20 mg, which upon dissolving of in acetonitile was identified as a mixture of CPh3(1-Et-CB11F11) and [Si(i-Pr)3(CD3CN)][1-Et-CB11F11]. The volume of the pentane solution was reduced to ˜5 ml, which caused the formation of white solid. The solid was separated by filtration, washed three times with 1 ml of pentane and dried under nitrogen atmosphere inside the glove box. The yield of Si(i-Pr)3(1-Et-CB11F11) as an off-white crystalline solid was 0.198 g (56%). […]

Data set [2] is described as follows: Zirconocene catalyzed selective dimerization of 1-hexene. The settings on record: for turnovers number within the first five minutes: co-catalyst with Cp2ZrMe2, first five minutes. As to the method: A solution of Al(CH3)2(1-[…]-CB11F11) (6.1 mg, 10.8 μmol) in 0.28 ml of methylcyclohexane was treated with a solution of Cp2ZrMe2 (2.3 mg, 9.1 μmol) in 1-hexene (3.654 g). The resulted mixture was stirred under a nitrogen atmosphere and the samples were taken from the reaction mixture after 5 minutes and 55 minutes. According to ^1H NMR spectra of the reaction mixtures approximately 33% of 1-hexene were reacted within 5 minutes, and approximately 99% of 1-hexene were reacted within 55 minutes. The reaction was exothermic as indicated by the significant self-heating of the reaction mixture during the reaction. The reaction products were analyzed by ^1H, ^13C NMR and GC-MS. According to the analysis the reaction mixture contained 83% of 1-hexene dimerization products (more than 95% of 2-butyl-1-octene) and 17% of 1-hexene isomerization products (the distribution of hexene isomers was as follows: E-2 hexene-56%, Z-2 hexene-26%, E-3 hexene-15%, and Z-3 hexene-3%). The total turnovers number of the activated zirconocene catalyst was calculated to be 4780 (87 TON·min^−1). The turnovers number within the first five minutes of the reaction was approximately 315 TON·min^−1

A short description of data set [3]: Polymerization of ethylene with one equivalent of Cp2ZrMe2. The settings on record: with Cp2ZrMe2, hexanes, 660 torr ethylene, from ethylene pressure decrease. The protocol:
A suspension of [CPh3][1-C12H25-CB11F11] (5.0 mg) in 0.5 ml of methylcyclohexane-d14 was treated with 0.5 ml of methylcyclohexane-d14 solution of Al(CH3)3 (2.2 mg) for 20 h. […] The filtrate was diluted with 7 ml of hexanes and transferred into a 50 ml Kontes tube. The solution was treated with 1 ml of hexanes solution of Cp2ZrMe2 (1.3 mg). The mixture was treated with 660 torr of ethylene. The ethylene pressure was decreased to 470 torr within 5 minutes due to the formation of polyethylene (white solid). More ethylene (812 torr) was added to the mixture and the ethylene pressure was decreased to 295 torr within the next 2 hours. The mixture was quenched with 5 ml of methanol and stirred for 20 minutes. A solid polyethylene was collected (210 mg) by filtration and characterized by DSC (Tm=129° C.). The catalytic activity during the first 5 minutes (good agitation) was calculated based on the ethylene pressure decrease and was at least 150 kg PE/mol Zr·h·atm.

Data set [4] is described as follows: Polymerization of ethylene in hexanes. The settings on record: hexanes solution, 24° C., 703 torr ethylene, 18 h. The protocol: A suspension of [CPh3][1-C12H25-CB11F11] (5.0 mg) in 0.5 ml of methylcyclohexane-d14 was treated with 0.5 ml of methylcyclohexane-d14 solution of Al(CH3)3 (2.2 mg) for 20 h. […] The filtrate was diluted with 7 ml of hexanes and transferred into a 50 ml Kontes tube. The solution was treated with 703 torr of ethylene for 18 h at 24° C. and small amount of white solid was formed. The mixture was treated with 3 ml of methanol for 20 minutes. A solid polyethylene was collected (3 mg) by filtration and characterized by DSC (Tm=126° C.).

For data set [5] the following is noted: cited from earlier work.
For data set [6] the following is noted: similar transformation, comparison value; cited from earlier work.
For data set [7] the following is noted: cited from earlier work. The source holds these as a separate data set.
A short description of data set [8]: Alkylation of benzene with 1-hexene. The conditions noted are these: benzene + 1-hexene, 25 hours. As to the method: A mixture of Al(CH3)2(1-CH3-CB11F11) (2.5 mg, 4.4 μmol), benzene (0.964 g, 12.4 mmol) and 1-hexene (0.224 g, 2.7 mmol) was stirred for 25 hours under a nitrogen atmosphere. […] A GC-MS analysis of the reaction mixture indicated the formation of monohexylbenzenes (29%), dihexylbenzenes (20%) and trihexylbenzenes (51%). The relative amounts of 2-phenylhexane and 3-phenylhexane were 70% and 30%, respectively. Total turnovers number of aluminum alkyl catalyst was calculated to be approximately 606 (24 TON/h).

The nature of data set [9]: Arene-olefin coupling of toluene-d8 with ethylene. The conditions noted are these: toluene-d8, 656 torr ethylene, 14.5 hours, 24° C. As to the method: Compounds of Formula IA are useful in a variety of organic reactions including in an arene-olefin coupling reaction. Thus, when the above reaction was repeated under one atmosphere of ethylene (CH2═CH2), a GC-MS analysis of the reaction mixture after 14.5 hr at 24° C. indicated the catalytic formation of all three positional isomers (i.e., the ortho (47%), meta (35%), and para (18%) isomers) of C6D4(CD3)(CH2CH2D) (the number of turnovers in this particular experiment was approximately 60-70. Without being bound any theory, the proposed catalytic scheme, which includes the catalytic activation of aromatic C—H bonds and the catalytic insertion of ethylene into an aluminum-aryl bond, is shown in FIG. 1 in a generic scheme using C6H6 as the substrate instead of C6D5CD3 for simplicity (the coordinated fluorocarborate anion (i.e., Q moiety) has also been omitted from the scheme for simplicity). It should be appreciated that the AlPh2^+1 species shown in FIG. 1 may in fact be a mixture of AlPh2^+1 and AlMePh^+1 species.
A compound Al(CH3)2(1-CH3-CB11F11) (2 mg) was dissolved in 1 ml of toluene-d8 and transferred into a sealable NMR tube. The solution was degassed under vacuum and treated with 656 torr of ethylene for 14.5 hours at 24° C. Proton NMR spectrum of the solution indicated the formation of ethyltoluene. […]

The procedure of data set [10]:
Hexanes and an excess of trimethylaluminum were removed under vacuum.
A mixture of [CPh3][(CH3)3NB12F11] […] A mixture was stirred under a nitrogen atmosphere for 20 h.
The orange microcrystalline compound (CPh3)2B12F12 (0.195 g, 0.231 mmol) was treated with 2 ml of toluene solution of AlMe3 (0.161 g, 2.240 mmol). […] The mixture was stirred for additional 40 hours.

On to Al(CH3)2(1-C12H25-CB11F11), for which, in [1] (hexanes and methylcyclohexane, 25° C.), the stable in solution entry was “at least 10 days”. In addition, the “total turnovers number of the activated zirconocene catalyst” value in data set [2] (co-catalyst with Cp2ZrMe2, 1-hexene, 55 minutes) is 4780. Also, the “turnover rate over whole reaction” value in data set [2] (co-catalyst with Cp2ZrMe2, 55 minutes) is 87 TON·min^−1. In addition, the “turnovers number within the first five minutes” value in [2] is 315 TON·min^−1; in data set [2] (listed as Al(CH3)2(1-C2H25-CB11F11)) it was “approximately 315 TON·min^−1”. Moreover, the 1-hexene reacted result in [2] (within 5 minutes) was “approximately 33%”; in [2] (within 55 minutes) it was “approximately 99%”. Further, the “catalytic activity during the first 5 minutes” value in data set [3] was “at least 150 kg PE/mol Zr·h·atm”. Besides, in [4], the “activity for polymerization of ethylene” value was “approximately 33 g PE/mol Al·h·at”.
In the case of methylalurnoxane [MAO], the “stability when stored in solution” value in [5] is listed as “not stable”. In data set [6], the “activity, conventional co-catalyst” value was 30 TON ·min^−1 and the “total turnovers number of the catalyst, conventional co-catalyst” value is on record as 500. The “solubility in aliphatic hydrocarbon solvents” value in data set [7] is “limited solubilities”.
For Al(CH3)2(1-CH3-CB11F11), the “total turnovers number of aluminum alkyl catalyst” value in data set [8] is given as “approximately 606”. Moreover, the turnover rate in data set [8] amounted to 24 TON/h. For the same substance, the “number of turnovers (TON), formation of ethyltoluene” value is “approximately 66” in data set [9] and 60-70 in data set [9] (listed as AlMe2(1-Me-CB11F11)).
With (AlMe2)2B12F12, in data set [10], the “solubility in acetonitrile-d3” value is “dissolved” and the “solubility in toluene” value is “not soluble”.
Take Si(i-Pr)3(1-Et-CB11F11): the “sensitivity to traces of water” value in [1] (solid, storage under nitrogen) is “extremely sensitive”.
For the substance Al(CH3)2((CH3)3NB12F11), in data set [10], the “solubility in acetonitrile-d3” value is on record as “completely dissolved” and the “solubility in toluene” value is given as “not soluble”.

The values above are taken from patent US6645903B2, “Fluoroborane salts comprising a reactive cation and uses thereof” (Colorado State University Research Foundation, priority 2000, dated 2003).
